Experimental data reported in patent US20230085307A1, “PYRIDAZINONE COMPOUND AND HERBICIDE” (NISSAN CHEMICAL CORPORATION, priority 2019, published 2023).

Assays:
persian speedwell [1] = assay: Test Example 5: herbicidal effect by foliage application, plastic box (Table 20, symbol R); type: in vivo, Persian speedwell (Veronica persica); conditions: foliage application, 320 g/ha, evaluated 3 weeks after application
Procedure, shortened: (§1)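 Foliar spray test: emulsion formulation diluted in water to a set application rate, sprayed onto 14-day-old plants raised in diluvial soil at 25° C to 30° C under glass. Both herbicidal effect and crop effect rated visually three weeks later.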

barnyard grass [2] = assay: Test Example 4: herbicidal effect by soil treatment (Table 19, symbol H); type: in vivo, barnyard grass (Echinochloa crus-galli); conditions: amount of applied herbicide 320 g/ha
Procedure, shortened: (§2)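 Herbicidal effect was rated 3 weeks after treatment, using the scoring criteria of an earlier test. The compound, formulated as an emulsion and diluted in water to a set herbicide amount, had been sprayed uniformly on soil over freshly sown seeds. Growth took place in a greenhouse at 25° C. to 30° C.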

oval-leafed pondweed = assay: Test Example 1: herbicidal activity, application before weed generation under submerged conditions (Table 16, symbol C); type: in vivo, oval-leafed pondweed (Monochoria vaginalis); conditions: amount of applied herbicide 320 g/ha
Procedure, shortened: (§3)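 Alluvial soil was flooded to 4 cm depth, weed seeds were sown mixed and 2.5-leaf rice seedlings were transplanted. On sowing day, the compound's emulsion, diluted in water to a set dose, was applied to the water surface. Plants grew at 25–30 °C and were scored 0–5 after three weeks.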

false cleavers [3] = assay: Test Example 4: herbicidal effect by soil treatment (Table 19, symbol Q); type: in vivo, false cleavers (Galium spurium); conditions: amount of applied herbicide 320 g/ha
Procedure, shortened: as §2

wild oat [4] = assay: Test Example 4: herbicidal effect by soil treatment (Table 19, symbol I); type: in vivo, wild oat (Avena fatua); conditions: amount of applied herbicide 320 g/ha
Procedure, shortened: as §2

southern crabgrass [5] = assay: Test Example 5: herbicidal effect by foliage application, plastic box (Table 20, symbol F); type: in vivo, southern crabgrass (Digitaria ciliaris); conditions: foliage application, 320 g/ha, evaluated 3 weeks after application
Procedure, shortened: as §1

blackgrass [6] = assay: Test Example 4: herbicidal effect by soil treatment (Table 19, symbol J); type: in vivo, blackgrass (Alopecurus myosuroides); conditions: amount of applied herbicide 320 g/ha
Procedure, shortened: as §2

lambsquarters [7] = assay: Test Example 5: herbicidal effect by foliage application, plastic box (Table 20, symbol O); type: in vivo, lambsquarters (Chenopodium album); conditions: foliage application, 320 g/ha, evaluated 3 weeks after application
Procedure, shortened: as §1

southern crabgrass [8] = assay: Test Example 4: herbicidal effect by soil treatment (Table 19, symbol F); type: in vivo, southern crabgrass (Digitaria ciliaris); conditions: amount of applied herbicide 320 g/ha
Procedure, shortened: as §2

late watergrass = assay: Test Example 1: herbicidal activity, application before weed generation under submerged conditions (Table 16, symbol A); type: in vivo, late watergrass (Echinochloa oryzicola); conditions: amount of applied herbicide 320 g/ha
Procedure, shortened: as §3

green foxtail [9] = assay: Test Example 4: herbicidal effect by soil treatment (Table 19, symbol G); type: in vivo, green foxtail (Setaria viridis); conditions: amount of applied herbicide 320 g/ha
Procedure, shortened: as §2

persian speedwell [10] = assay: Test Example 4: herbicidal effect by soil treatment (Table 19, symbol R); type: in vivo, Persian speedwell (Veronica persica); conditions: amount of applied herbicide 320 g/ha
Procedure, shortened: as §2

Chinese sprangletop = assay: Test Example 3: herbicidal effect by foliage application, Wagner pot (Table 18, symbol D); type: in vivo, chinese sprangletop (Leptochloa chinensis); conditions: amount of applied herbicide 320 g/ha
Procedure, shortened: (§4)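 Plants were sown in alluvial soil held under 0.1–0.5 cm standing water and grown 14 days in a greenhouse at 25–30 °C. An emulsifiable formulation, water-diluted to the set dose, was then sprayed onto the foliage, and effects were scored three weeks later using previously defined criteria.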

Japanese bulrush = assay: Test Example 1: herbicidal activity, application before weed generation under submerged conditions (Table 16, symbol B); type: in vivo, Japanese bulrush (Schoenoplectus juncoides); conditions: amount of applied herbicide 320 g/ha
Procedure, shortened: as §3

windgrass [11] = assay: Test Example 5: herbicidal effect by foliage application, plastic box (Table 20, symbol L); type: in vivo, windgrass (Apera spica-venti); conditions: foliage application, 320 g/ha, evaluated 3 weeks after application
Procedure, shortened: as §1

velvetleaf [12] = assay: Test Example 5: herbicidal effect by foliage application, plastic box (Table 20, symbol M); type: in vivo, velvetleaf (Abutilon theophrasti); conditions: foliage application, 320 g/ha, evaluated 3 weeks after application
Procedure, shortened: as §1

velvetleaf [13] = assay: Test Example 4: herbicidal effect by soil treatment (Table 19, symbol M); type: in vivo, velvetleaf (Abutilon theophrasti); conditions: amount of applied herbicide 320 g/ha
Procedure, shortened: as §2

green foxtail [14] = assay: Test Example 5: herbicidal effect by foliage application, plastic box (Table 20, symbol G); type: in vivo, green foxtail (Setaria viridis); conditions: foliage application, 320 g/ha, evaluated 3 weeks after application
Procedure, shortened: as §1

windgrass [15] = assay: Test Example 4: herbicidal effect by soil treatment (Table 19, symbol L); type: in vivo, windgrass (Apera spica-venti); conditions: amount of applied herbicide 320 g/ha
Procedure, shortened: as §2

false cleavers [16] = assay: Test Example 5: herbicidal effect by foliage application, plastic box (Table 20, symbol Q); type: in vivo, false cleavers (Galium spurium); conditions: foliage application, 320 g/ha, evaluated 3 weeks after application
Procedure, shortened: as §1

Italian ryegrass [17] = assay: Test Example 5: herbicidal effect by foliage application, plastic box (Table 20, symbol K); type: in vivo, Italian ryegrass (Lolium multiflorum); conditions: foliage application, 320 g/ha, evaluated 3 weeks after application
Procedure, shortened: as §1

barnyard grass [18] = assay: Test Example 3: herbicidal effect by foliage application, Wagner pot (Table 18, symbol H); type: in vivo, barnyard grass (Echinochloa crus-galli); conditions: amount of applied herbicide 320 g/ha
Procedure, shortened: as §4

redroot pigweed [19] = assay: Test Example 5: herbicidal effect by foliage application, plastic box (Table 20, symbol N); type: in vivo, redroot pigweed (Amaranthus retroflexus); conditions: foliage application, 320 g/ha, evaluated 3 weeks after application
Procedure, shortened: as §1

wild oat [20] = assay: Test Example 5: herbicidal effect by foliage application, plastic box (Table 20, symbol I); type: in vivo, wild oat (Avena fatua); conditions: foliage application, 320 g/ha, evaluated 3 weeks after application
Procedure, shortened: as §1

redroot pigweed [21] = assay: Test Example 4: herbicidal effect by soil treatment (Table 19, symbol N); type: in vivo, redroot pigweed (Amaranthus retroflexus); conditions: amount of applied herbicide 320 g/ha
Procedure, shortened: as §2

chickweed [22] = assay: Test Example 5: herbicidal effect by foliage application, plastic box (Table 20, symbol P); type: in vivo, common chickweed (Stellaria media); conditions: foliage application, 320 g/ha, evaluated 3 weeks after application
Procedure, shortened: as §1

Italian ryegrass [23] = assay: Test Example 4: herbicidal effect by soil treatment (Table 19, symbol K); type: in vivo, Italian ryegrass (Lolium multiflorum); conditions: amount of applied herbicide 320 g/ha
Procedure, shortened: as §2

lambsquarters [24] = assay: Test Example 4: herbicidal effect by soil treatment (Table 19, symbol O); type: in vivo, lambsquarters (Chenopodium album); conditions: amount of applied herbicide 320 g/ha
Procedure, shortened: as §2

barnyard grass [25] = assay: Test Example 5: herbicidal effect by foliage application, plastic box (Table 20, symbol H); type: in vivo, barnyard grass (Echinochloa crus-galli); conditions: foliage application, 320 g/ha, evaluated 3 weeks after application
Procedure, shortened: as §1

rice flat sedge = assay: Test Example 3: herbicidal effect by foliage application, Wagner pot (Table 18, symbol E); type: in vivo, rice flat sedge (Cyperus iria); conditions: amount of applied herbicide 320 g/ha
Procedure, shortened: as §4

blackgrass [26] = assay: Test Example 5: herbicidal effect by foliage application, plastic box (Table 20, symbol J); type: in vivo, blackgrass (Alopecurus myosuroides); conditions: foliage application, 320 g/ha, evaluated 3 weeks after application
Procedure, shortened: as §1

chickweed [27] = assay: Test Example 4: herbicidal effect by soil treatment (Table 19, symbol P); type: in vivo, common chickweed (Stellaria media); conditions: amount of applied herbicide 320 g/ha
Procedure, shortened: as §2

COc1ccc2c(-c3c(O)c(C)nn(C)c3=O)c(-c3ccccc3OC)oc2c1 [10-001]
R (persian speedwell) herbicidal effect grade (persian speedwell [1]): 5 (Herbicidal rate of 90% or more (almost completely withered)) | H: barnyard grass, herbicidal effect grade (barnyard grass [2]): 0 (Herbicidal rate of 5% or less (almost no effect)) | Herbicidal effect, C: oval-leafed pondweed (oval-leafed pondweed): 3 (Herbicidal rate of 40% or more and less than 70%) | Q: false cleavers, herbicidal effect grade (false cleavers [3]): 0 (Herbicidal rate of 5% or less (almost no effect)) | I: wild oat, herbicidal effect grade (wild oat [4]): 0 (Herbicidal rate of 5% or less (almost no effect)) | F (southern crabgrass) herbicidal effect grade (southern crabgrass [5]): 2 (Herbicidal rate of 20% or more and less than 40%) | J: blackgrass, herbicidal effect grade (blackgrass [6]): 0 (Herbicidal rate of 5% or less (almost no effect)) | O (lambsquarters) herbicidal effect grade (lambsquarters [7]): 4 (Herbicidal rate of 70% or more and less than 90%) | F: southern crabgrass, herbicidal effect grade (southern crabgrass [8]): 0 (Herbicidal rate of 5% or less (almost no effect)) | Herbicidal effect, A: late watergrass (late watergrass): 0 (Herbicidal rate of 5% or less (almost no effect)) | G: green foxtail, herbicidal effect grade (green foxtail [9]): 0 (Herbicidal rate of 5% or less (almost no effect)) | R: persian speedwell, herbicidal effect grade (persian speedwell [10]): 5 (Herbicidal rate of 90% or more (almost completely withered)) | Herbicidal effect on D (Chinese sprangletop), foliage application (Chinese sprangletop): 0 (Herbicidal rate of 5% or less (almost no effect)) | Herbicidal effect, B: Japanese bulrush (Japanese bulrush): 0 (Herbicidal rate of 5% or less (almost no effect)) | L (windgrass) herbicidal effect grade (windgrass [11]): 3 (Herbicidal rate of 40% or more and less than 70%) | M (velvetleaf) herbicidal effect grade (velvetleaf [12]): 3 (Herbicidal rate of 40% or more and less than 70%) | M: velvetleaf, herbicidal effect grade (velvetleaf [13]): 0 (Herbicidal rate of 5% or less (almost no effect)) | G (green foxtail) herbicidal effect grade (green foxtail [14]): 3 (Herbicidal rate of 40% or more and less than 70%) | L: windgrass, herbicidal effect grade (windgrass [15]): 0 (Herbicidal rate of 5% or less (almost no effect)) | Q (false cleavers) herbicidal effect grade (false cleavers [16]): 4 (Herbicidal rate of 70% or more and less than 90%) | K (Italian ryegrass) herbicidal effect grade (Italian ryegrass [17]): 0 (Herbicidal rate of 5% or less (almost no effect)) | Herbicidal effect on H (barnyard grass), foliage application (barnyard grass [18]): 3 (Herbicidal rate of 40% or more and less than 70%) | N (redroot pigweed) herbicidal effect grade (redroot pigweed [19]): 3 (Herbicidal rate of 40% or more and less than 70%) | I (wild oat) herbicidal effect grade (wild oat [20]): 0 (Herbicidal rate of 5% or less (almost no effect)) | N: redroot pigweed, herbicidal effect grade (redroot pigweed [21]): 0 (Herbicidal rate of 5% or less (almost no effect)) | P (chickweed) herbicidal effect grade (chickweed [22]): 5 (Herbicidal rate of 90% or more (almost completely withered)) | K: Italian ryegrass, herbicidal effect grade (Italian ryegrass [23]): 0 (Herbicidal rate of 5% or less (almost no effect)) | O: lambsquarters, herbicidal effect grade (lambsquarters [24]): 0 (Herbicidal rate of 5% or less (almost no effect)) | H (barnyard grass) herbicidal effect grade (barnyard grass [25]): 3 (Herbicidal rate of 40% or more and less than 70%) | Herbicidal effect on E (rice flat sedge), foliage application (rice flat sedge): 2 (Herbicidal rate of 20% or more and less than 40%) | J (blackgrass) herbicidal effect grade (blackgrass [26]): 0 (Herbicidal rate of 5% or less (almost no effect)) | P: chickweed, herbicidal effect grade (chickweed [27]): 0 (Herbicidal rate of 5% or less (almost no effect))
